Measured values from patent US8785614B2, “Aberrantly methylated genes in pancreatic cancer” (The Johns Hopkins University, priority 2003, dated 2014).
Read-outs that look alike come from different tables or passages of the source.

Tested on: MiaPaCa2 pancreatic cancer cell line
Description: Mock-treated cells were cultured with the equivalent volume of PBS alone.
Total RNA was isolated from cultured cells using TRIZOL reagent (invitrogen, Carlsbad, Calif.) and purified using RNeasy Mini Kit (Qiagen, Valencia, Calif.). First- and second-stranded cDNA was synthesized from 10 μg of total RNA using 17-dT) primer (Genset Corp., La Jolla, Calif.) and Superscript Choice system (Invitrogen). Labeled cRNA was synthesized from the purified cDNA by in vitro transcription reaction using the BioArray High Yield RNA Transcript Labeling Kit (Enzo Diagnostics, Inc., Farmingdale, N.Y.) at 37° C. for 6 h. The cRNA was fragmented at 94° C. for 35 min. in a fragmentation buffer [40 mM Tris-acetate @ pH 8.1, 100 mM potassium acestate, and 30 mM magnesium acetate]. The fragmented cRNA was then hybridized to the Human Genome U133A chips (Affymetrix, Santa Clara, Calif.) with 18462 unique gene/EST transcripts at 45° C. for 16 h. The washing and staining procedure was performed in the Affymetrix Fluidics Station according to the manufacturer's instructions. The probes were then scanned using a laser scanner, and signal intensity for each transcript (background-subtracted and adjusted for noise) was calculated using Microarray Suite Software 5.0 (Affymetrix).
Fold change analysis of signal intensities obtained from oligonucleotide microarrays between the two treatment groups was performed using Data Mining software (Afrymetrix).
The global changes in gene expression proxies induced by 5Aza-dC in four pancreatic cancer cell lines (AsPCl, Hs766T, MiaPaCa2, and Panel) were determined using the Afrymetrix U133 oligonucleotide microarrays with 18462 probes sets (transcripts) covering over 13000 full-length sequences of known genes.

With Nc1ncn([C@H]2C[C@H](O)[C@@H](CO)O2)c(=O)n1 [5Aza-dC, 5 aza 2′ deoxycytidine] the “Fold-change after 5Aza-dC treatment” value (ANGPT2, MiaPaCa2) was 2.27 fold, the “Fold-change after 5Aza-dC treatment” value (BARD1, MiaPaCa2) was −1.3 fold and the “Fold-change after 5Aza-dC treatment” value (BNIP3, MiaPaCa2) was 21.32 fold. The “Fold-change after 5Aza-dC treatment” value (BST2, MiaPaCa2) was 8.59 fold, the “Fold-change after 5Aza-dC treatment” value (CACNA1G, MiaPaCa2) was 1.61 fold and the “Fold-change after 5Aza-dC treatment” value (CCNE2, MiaPaCa2) was 1.09 fold. For the same compound, the “Fold-change after 5Aza-dC treatment” value (CDH3, MiaPaCa2) was 5.79 fold, the “Fold-change after 5Aza-dC treatment” value (CDKN1A (p21), MiaPaCa2) was 7.04 fold and the “Fold-change after 5Aza-dC treatment” value (CDKN1C, MiaPaCa2) was 2.28 fold. For the same compound, the “Fold-change after 5Aza-dC treatment” value (CLDN5, MiaPaCa2) was 1.67 fold, the “Fold-change after 5Aza-dC treatment” value (CSF1, MiaPaCa2) was 4.23 fold and the “Fold-change after 5Aza-dC treatment” value (DR3, MiaPaCa2) was 2.12 fold. The “Fold-change after 5Aza-dC treatment” value (FOXE1, MiaPaCa2) was 3.8 fold, the “Fold-change after 5Aza-dC treatment” value (GAGE1, MiaPaCa2) was 6.7 fold and the “Fold-change after 5Aza-dC treatment” value (GAGE3, MiaPaCa2) was 15.22 fold. For the same compound, the “Fold-change after 5Aza-dC treatment” value (GAGE4, MiaPaCa2) was 47.6 fold, the “Fold-change after 5Aza-dC treatment” value (GAGE6, MiaPaCa2) was 24.03 fold and the “Fold-change after 5Aza-dC treatment” value (GAGE7, MiaPaCa2) was 54.35 fold. For the same compound, the “Fold-change after 5Aza-dC treatment” value (HOXA1, MiaPaCa2) was 2.56 fold, the “Fold-change after 5Aza-dC treatment” value (IGF2, MiaPaCa2) was 0.81 fold and the “Fold-change after 5Aza-dC treatment” value (IL1R1, MiaPaCa2) was −1.77 fold. For the same compound, the “Fold-change after 5Aza-dC treatment” value (ISG20, MiaPaCa2) was 21.28 fold, the “Fold-change after 5Aza-dC treatment” value (JPH3, MiaPaCa2) was 1.4 fold and the “Fold-change after 5Aza-dC treatment” value (KLK10, MiaPaCa2) was 136.95 fold. For the same compound, the “Fold-change after 5Aza-dC treatment” value (LDOC1, MiaPaCa2) was −1.01 fold, the “Fold-change after 5Aza-dC treatment” value (LHX1, MiaPaCa2) was 1.89 fold and the “Fold-change after 5Aza-dC treatment” value (MAGE1, MiaPaCa2) was 2.27 fold. For the same compound, the “Fold-change after 5Aza-dC treatment” value (MATN1, MiaPaCa2) was −1.01 fold, the “transcripts with >5-fold increase, share of the 18462 transcripts analyzed” value (MiaPaCa2) was 1.4% and the “transcripts with substantial increase (>5-fold) in signal intensities” value (MiaPaCa2, vs mock-treated) was 251 transcripts. The “Fold-change after 5Aza-dC treatment” value (NEFH, MiaPaCa2) was 6.73 fold, the “Fold-change after 5Aza-dC treatment” value (NPTX2, MiaPaCa2) was 6.4 fold and the “Fold-change after 5Aza-dC treatment” value (PAX6, MiaPaCa2) was −1.12 fold. The “Fold-change after 5Aza-dC treatment” value (PDYN, MiaPaCa2) was 3.48 fold, the “Fold-change after 5Aza-dC treatment” value (PLAT, MiaPaCa2) was 6.4 fold and the “Fold-change after 5Aza-dC treatment” value (PLEK2, MiaPaCa2) was 7.5 fold. The “Fold-change after 5Aza-dC treatment” value (SARP2, MiaPaCa2) was 38.33 fold, the “Fold-change after 5Aza-dC treatment” value (SMARCA1, MiaPaCa2) was −1.07 fold and the “Fold-change after 5Aza-dC treatment” value (ST14, MiaPaCa2) was 1.48 fold. For the same compound, the “Fold-change after 5Aza-dC treatment” value (TIMP3, MiaPaCa2) was 1 fold, the “Fold-change after 5Aza-dC treatment” value (TJP2, MiaPaCa2) was 8.61 fold and the “Fold-change after 5Aza-dC treatment” value (TNF, MiaPaCa2) was 31.63 fold. For the same compound, the “Fold-change after 5Aza-dC treatment” value (UCHL1, MiaPaCa2) was 5.27 fold, the “Fold-change after 5Aza-dC treatment” value (WNT7A, MiaPaCa2) was 6.24 fold and the “Fold-change after 5Aza-dC treatment” value (XAGE-1, MiaPaCa2) was 12.99 fold. For the same compound, the “Fold-change after 5Aza-dC treatment” value (granulocytemacrophage colony-stimulating factor (M11734), MiaPaCa2) was 3.97 fold, the “Fold-change after 5Aza-dC treatment” value (interferon, alpha-inducible protein (NM_022873), MiaPaCa2) was 11.03 fold and the “Fold-change after 5Aza-dC treatment” value (p53-induced protein (PIGII), MiaPaCa2) was 5.45 fold. The “Fold-change after 5Aza-dC treatment” value (reprimo, MiaPaCa2) was −1.09 fold, the “Fold-change after 5Aza-dC treatment” value (stratifin (14-3-3 sigma), MiaPaCa2) was 34.77 fold and the “Fold-change after 5Aza-dC treatment” value (stromal antigen 3 (STAG5), MiaPaCa2) was 4.96 fold. For the same compound, the “Fold-change after 5Aza-dC treatment” value (testin, MiaPaCa2) was 9.61 fold.
